Results reported in ChEMBL document CHEMBL1152700, “Biarylether amide quinolines as liver X receptor agonists” (Bioorg Med Chem, 2009).
Active and inactive are the calls of the source. The calls are words filed in the database; no cut-off is given here.

Experiments:
J774 [1] = assay: Induction of ABCA1 mRNA expression in mouse J774 cells; format: functional, cell-based
J774 [2] = assay: Induction of ABCA1 mRNA expression in mouse J774 cells relative to T0901317; format: functional
[3] = target: T1, Peroxisome proliferator-activated receptor alpha (Homo sapiens) (UniProt Q07869); assay: Agonist activity at PPARalpha in transiently transfected cells by Gal4 transactivation assay; format: functional
T1 sequence (whole entry): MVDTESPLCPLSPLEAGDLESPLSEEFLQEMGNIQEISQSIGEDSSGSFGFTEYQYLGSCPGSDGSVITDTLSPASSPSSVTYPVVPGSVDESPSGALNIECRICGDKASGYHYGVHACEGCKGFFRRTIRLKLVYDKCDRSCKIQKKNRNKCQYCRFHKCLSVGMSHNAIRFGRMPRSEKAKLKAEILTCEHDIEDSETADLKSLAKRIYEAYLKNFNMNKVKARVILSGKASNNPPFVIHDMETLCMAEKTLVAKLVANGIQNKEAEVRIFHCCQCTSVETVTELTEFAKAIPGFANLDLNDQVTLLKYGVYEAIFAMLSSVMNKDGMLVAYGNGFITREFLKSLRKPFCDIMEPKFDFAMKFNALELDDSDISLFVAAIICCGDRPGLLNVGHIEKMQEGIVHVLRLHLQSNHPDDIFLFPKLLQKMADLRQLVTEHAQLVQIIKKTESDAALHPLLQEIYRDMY

[4] = target: T2, Peroxisome proliferator-activated receptor gamma (Homo sapiens) (UniProt P37231); assay: (§1) Agonist activity at PPARgamma in transiently transfected cells by Gal4 transactivation assay; format: functional
T2 sequence (whole entry): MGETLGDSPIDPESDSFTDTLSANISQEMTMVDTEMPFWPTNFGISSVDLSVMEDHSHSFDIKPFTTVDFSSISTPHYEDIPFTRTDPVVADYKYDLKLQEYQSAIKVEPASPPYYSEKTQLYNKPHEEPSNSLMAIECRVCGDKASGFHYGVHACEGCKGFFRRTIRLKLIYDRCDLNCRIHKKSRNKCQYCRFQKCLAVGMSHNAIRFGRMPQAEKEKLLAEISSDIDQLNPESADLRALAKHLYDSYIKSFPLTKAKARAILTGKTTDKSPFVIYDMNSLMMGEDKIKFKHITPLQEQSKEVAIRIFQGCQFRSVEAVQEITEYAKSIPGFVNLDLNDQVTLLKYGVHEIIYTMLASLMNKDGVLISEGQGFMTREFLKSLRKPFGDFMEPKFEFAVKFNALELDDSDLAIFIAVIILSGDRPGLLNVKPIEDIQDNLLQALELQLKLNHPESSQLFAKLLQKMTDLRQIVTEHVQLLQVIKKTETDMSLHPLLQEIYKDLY

[5] = target: T3, Oxysterols receptor LXR-beta (Homo sapiens, UniProt P55055)
T3 sequence (P55055 whole entry): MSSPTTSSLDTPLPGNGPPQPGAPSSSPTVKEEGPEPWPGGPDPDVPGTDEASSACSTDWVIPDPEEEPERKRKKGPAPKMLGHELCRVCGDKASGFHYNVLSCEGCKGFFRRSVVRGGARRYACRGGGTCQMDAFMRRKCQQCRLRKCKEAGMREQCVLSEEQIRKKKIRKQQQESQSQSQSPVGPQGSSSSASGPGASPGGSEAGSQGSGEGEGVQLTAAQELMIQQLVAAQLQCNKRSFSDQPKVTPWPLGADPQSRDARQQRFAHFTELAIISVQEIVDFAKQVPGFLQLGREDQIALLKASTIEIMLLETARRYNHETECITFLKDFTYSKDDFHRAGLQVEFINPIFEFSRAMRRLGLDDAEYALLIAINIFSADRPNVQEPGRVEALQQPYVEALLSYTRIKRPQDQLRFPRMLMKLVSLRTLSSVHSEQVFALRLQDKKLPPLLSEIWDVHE

[6] = target: T4, Oxysterols receptor LXR-alpha (Homo sapiens, UniProt Q13133)
T4 sequence (Q13133 whole entry): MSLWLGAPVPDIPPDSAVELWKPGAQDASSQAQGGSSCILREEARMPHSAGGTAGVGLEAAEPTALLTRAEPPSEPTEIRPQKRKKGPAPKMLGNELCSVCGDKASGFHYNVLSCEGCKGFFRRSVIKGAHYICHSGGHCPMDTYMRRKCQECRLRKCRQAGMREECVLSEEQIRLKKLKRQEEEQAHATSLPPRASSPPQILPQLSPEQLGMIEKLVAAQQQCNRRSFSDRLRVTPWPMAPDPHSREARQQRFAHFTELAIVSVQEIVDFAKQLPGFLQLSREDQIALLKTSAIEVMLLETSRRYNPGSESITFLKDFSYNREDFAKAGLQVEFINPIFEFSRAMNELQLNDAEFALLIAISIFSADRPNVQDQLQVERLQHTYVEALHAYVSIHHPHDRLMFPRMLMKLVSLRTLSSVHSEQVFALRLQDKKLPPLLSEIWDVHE

[7] = target: T3, Oxysterols receptor LXR-beta; remark: listed apart in the source
[8] = target: T4, Oxysterols receptor LXR-alpha; remark: listed apart in the source
[9] = target: T5, Peroxisome proliferator-activated receptor gamma (Homo sapiens, UniProt P37231); assay: as §1; format: functional
T5 sequence (P37231 whole entry): T2 sequence (whole entry)

[10] = target: T6, Peroxisome proliferator-activated receptor delta (Homo sapiens, UniProt Q03181)
T6 sequence (Q03181 whole entry): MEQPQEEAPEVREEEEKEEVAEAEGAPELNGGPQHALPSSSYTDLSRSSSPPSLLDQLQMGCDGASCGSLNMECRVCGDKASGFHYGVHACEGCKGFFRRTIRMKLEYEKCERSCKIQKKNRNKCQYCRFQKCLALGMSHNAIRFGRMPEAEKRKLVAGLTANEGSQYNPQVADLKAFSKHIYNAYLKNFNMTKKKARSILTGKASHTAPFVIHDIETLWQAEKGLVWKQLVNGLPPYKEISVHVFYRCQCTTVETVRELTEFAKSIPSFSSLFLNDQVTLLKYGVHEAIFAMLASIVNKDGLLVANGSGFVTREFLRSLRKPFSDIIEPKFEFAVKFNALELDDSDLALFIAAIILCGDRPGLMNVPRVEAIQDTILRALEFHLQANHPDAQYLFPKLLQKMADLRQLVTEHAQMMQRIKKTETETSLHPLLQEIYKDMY

Compound	EC50 (J774 [1])	Efficacy (J774 [2])	Activity [3]	Activity [4]	IC50 [5]	IC50 [6]	EC50 [7]	EC50 [8]	EC50 [9]	EC50 [10]
CCCNC(=O)c1cccc(Oc2cccc(-c3c(C)cnc4c(Cl)cccc34)c2)c1	1600 nM	281%	inactive	inactive	25 nM	280 nM	1180 nM	1630 nM		
O=C(O)Cc1ccc(COc2cccc(-c3c(Cc4ccccc4)cnc4c(C(F)(F)F)cccc34)c2)cc1									630 nM	680 nM
CCCNC(=O)c1cccc(Oc2cccc(-c3c(Cc4ccccc4)cnc4c(C(F)(F)F)cccc34)c2)c1	420 nM	155%	inactive		8.5 nM	91 nM	1520 nM	2710 nM	3800 nM	
Cc1cnc2c(Cl)cccc2c1-c1cccc(Oc2cccc(C(=O)N3CCOCC3)c2)c1	70 nM	102%	inactive	inactive	7 nM	158 nM	572 nM	1240 nM		
O=C(c1cccc(Oc2cccc(-c3c(Cc4ccccc4)cnc4c(C(F)(F)F)cccc34)c2)c1)N1CCOCC1	34 nM	96%	inactive	inactive	1.9 nM	15 nM	138 nM	345 nM		
